Test results reported in PMC10907298 (Nature chemical biology, 2023).
Several values for one entry are separate records, joined by “and”; a condition that tells them apart may be missing. Equal values may be shown once. Entries after “also recorded” stand apart in the source; their conditions may differ.

Legend:
human STING = human STING (Homo sapiens, UniProt Q86WV6, G230A/R293Q/R71H); experiment: THP1-Dual ISRE-Luc reporter gene assay (primary screen and dose response); settings: for THP1-Dual reporter activity: single replicates (n=2)
human STING R95K = human STING R95K (Homo sapiens, UniProt Q86WV6, R95K); experiment: ISRE reporter assay with STING co-transfection in HEK293T cells
wild-type hSTING-GFP = wild-type hSTING-GFP (Homo sapiens, UniProt Q86WV6); experiment: STING translocation/aggregate (puncta) assay in HEK293T cells; format: cell-based; settings: 50 μM, overnight
IRF3 phosphorylation = IRF3 phosphorylation in THP1 cells (Western blot); format: cell-based, human; settings: STING-dependent
[1] = biological target: purified human STING (wild-type) (Homo sapiens, UniProt Q86WV6); experiment: native gel analysis of STING oligomerization; settings: compound alone, 40 μM, hSTING 20 μM
human STING R95C = human STING R95C (Homo sapiens, UniProt Q86WV6, R95C); experiment: ISRE reporter assay with STING co-transfection in HEK293T cells
human STING V31M = human STING V31M (Homo sapiens, UniProt Q86WV6, V31M); experiment: as above
BMDM, WT mSTING = experiment: IP10 induction in bone marrow-derived macrophages; format: cell-based, mouse; settings: 50μM, n=1
human STING R95A = human STING R95A (Homo sapiens, UniProt Q86WV6, R95A); experiment: ISRE reporter assay with STING co-transfection in HEK293T cells
mSTING C95R = biological target: T1, mSTING C95R (Mus musculus, UniProt Q3TBT3, C95R); experiment: as above
T1 sequence (Q3TBT3 1-378 C95R): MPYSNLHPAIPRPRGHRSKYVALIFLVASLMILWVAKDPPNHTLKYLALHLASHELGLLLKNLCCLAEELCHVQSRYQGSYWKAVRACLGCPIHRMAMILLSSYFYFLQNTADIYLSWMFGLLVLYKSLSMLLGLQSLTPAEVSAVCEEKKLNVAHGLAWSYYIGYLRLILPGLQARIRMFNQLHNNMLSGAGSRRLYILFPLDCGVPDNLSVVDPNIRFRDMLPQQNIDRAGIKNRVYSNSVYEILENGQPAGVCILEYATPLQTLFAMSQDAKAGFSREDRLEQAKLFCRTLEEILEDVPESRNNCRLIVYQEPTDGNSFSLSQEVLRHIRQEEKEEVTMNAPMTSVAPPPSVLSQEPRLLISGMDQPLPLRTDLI

human STING R238A = human STING R238A (Homo sapiens, UniProt Q86WV6, R238A); experiment: as above; settings: for ISRE reporter activity, mean: STING R238A
human STING (WT) = human STING (WT) (Homo sapiens, UniProt Q86WV6); experiment: as above; format: cell-based
[2] = biological target: hSTING(1–153)–mSTING(153–378) chimera (Homo sapiens, UniProt Q86WV6, A215V/A300E/A302V/A313V/A318T/A350V/D237N/D297E/D320G/E174G/E362R/E369D/G230I/G344N/H185L/H232R/I244V/K224M/K347M/K370Q/L189M/L202F/L222R/L247I/L333I/L346P/M214V/M357L/Q196R/Q276K/Q306R/R191S/R253P/S275A/S321N/S345A/S353P/T181M/T229N/T256V/T354P/T356V/V194G/V258I/V343M/V351A/Y182F/Y186H/Y274D); experiment: as above; format: cell-based, human/mouse; settings: for ISRE reporter activity, mean: h(1-153)/m(153-378)STING
hSTING(1–153)–mSTING(153–378) chimera, sequence (Q86WV6 with tags, fused parts or gaps with the stated changes): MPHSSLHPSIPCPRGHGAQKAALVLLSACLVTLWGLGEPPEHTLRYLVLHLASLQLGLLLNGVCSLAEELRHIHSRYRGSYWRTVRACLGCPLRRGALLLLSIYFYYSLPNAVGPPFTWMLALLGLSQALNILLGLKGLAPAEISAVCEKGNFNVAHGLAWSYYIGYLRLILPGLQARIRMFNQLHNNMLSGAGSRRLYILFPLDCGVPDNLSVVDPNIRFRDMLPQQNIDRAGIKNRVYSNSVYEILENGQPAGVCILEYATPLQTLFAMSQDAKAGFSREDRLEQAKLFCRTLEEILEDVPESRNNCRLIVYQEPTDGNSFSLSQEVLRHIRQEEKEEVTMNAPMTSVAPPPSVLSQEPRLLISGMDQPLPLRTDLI

human STING V31M, sequence (Q86WV6 whole entry V31M): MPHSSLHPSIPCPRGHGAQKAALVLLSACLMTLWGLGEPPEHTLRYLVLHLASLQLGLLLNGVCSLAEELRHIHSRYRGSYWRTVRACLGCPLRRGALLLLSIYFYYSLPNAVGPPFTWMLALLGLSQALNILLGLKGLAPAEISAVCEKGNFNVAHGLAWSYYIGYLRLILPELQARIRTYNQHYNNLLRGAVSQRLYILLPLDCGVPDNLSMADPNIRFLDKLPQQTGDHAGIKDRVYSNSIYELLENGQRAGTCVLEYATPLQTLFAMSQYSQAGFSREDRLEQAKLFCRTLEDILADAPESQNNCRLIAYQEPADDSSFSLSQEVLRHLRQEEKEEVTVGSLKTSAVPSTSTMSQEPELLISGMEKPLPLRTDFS
human STING R95C, sequence (Q86WV6 whole entry R95C): as the sequence (Q86WV6 whole entry V31M) above, with M31V, R95C counted along it
human STING, sequence (Q86WV6 whole entry R71H/G230A/R293Q): as the sequence (Q86WV6 whole entry V31M) above, with M31V, R71H, G230A, R293Q counted along it
human STING (WT), sequence (Q86WV6 whole entry): as the sequence (Q86WV6 whole entry V31M) above, with M31V counted along it
human STING R238A, sequence (Q86WV6 whole entry R238A): as the sequence (Q86WV6 whole entry V31M) above, with M31V, R238A counted along it
human STING R95A, sequence (Q86WV6 whole entry R95A): as the sequence (Q86WV6 whole entry V31M) above, with M31V, R95A counted along it
human STING R95K, sequence (Q86WV6 whole entry R95K): as the sequence (Q86WV6 whole entry V31M) above, with M31V, R95K counted along it
purified human STING (wild-type), sequence (Q86WV6 1-343): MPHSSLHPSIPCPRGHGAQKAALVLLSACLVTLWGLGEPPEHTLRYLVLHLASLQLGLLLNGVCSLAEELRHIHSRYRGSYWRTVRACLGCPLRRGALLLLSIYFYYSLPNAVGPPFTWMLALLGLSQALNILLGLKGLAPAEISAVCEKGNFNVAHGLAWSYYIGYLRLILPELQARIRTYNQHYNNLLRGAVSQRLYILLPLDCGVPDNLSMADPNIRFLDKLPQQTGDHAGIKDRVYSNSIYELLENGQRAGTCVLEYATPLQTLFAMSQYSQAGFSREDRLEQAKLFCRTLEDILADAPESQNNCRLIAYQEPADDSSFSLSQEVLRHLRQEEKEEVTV
wild-type hSTING-GFP, sequence (Q86WV6 whole entry): as the sequence (Q86WV6 whole entry V31M) above, with M31V counted along it

improvement of AC50 over NVS-STG1 (human STING): ~10 fold | induction of ISRE-Luc reporter (human STING): over 100 fold | THP1-Dual reporter activity (human STING; 97.7 nM): 10.063 and -15.21 | THP1-Dual reporter activity (human STING; 195 nM): 30.21 and -21.271 | THP1-Dual reporter activity (human STING; 391 nM): 28.405 and -4.368 | THP1-Dual reporter activity (human STING; 781 nM): -15.248 and 7.115 | THP1-Dual reporter activity (human STING; 1563 nM): 29.455 and 0.573 | THP1-Dual reporter activity (human STING; 3125 nM): 539.702 and 407.097 | THP1-Dual reporter activity (human STING; 6250 nM): 5408.19 and 4554.72 | THP1-Dual reporter activity (human STING; 12500 nM): 9931.09 and 8981.43 | THP1-Dual reporter activity (human STING; 25000 nM): 8940.66 and 8036.74 | STING activation in words (human STING R95K): partially active | puncta-like structure formation in words (wild-type hSTING-GFP): only the wild-type was responsive | ISRE reporter activity, mean (human STING R95C; Log[μM] 0.2): 0.9 | ISRE reporter activity, mean (human STING R95C; Log[μM] 0.5): 0.8 | ISRE reporter activity, mean (human STING R95C; Log[μM] 0.8): 1.1 | ISRE reporter activity, mean (human STING R95C; Log[μM] 1.1): 1.9 | ISRE reporter activity, mean (human STING R95C; Log[μM] 1.4): 2.1 | ISRE reporter activity, mean (human STING R95C; Log[μM] -0.1): 0.8 | ISRE reporter activity, mean (human STING R95C; Log[μM] -0.4): 0.8 | ISRE reporter activity, mean (human STING R95C; Log[μM] -0.7): 0.8 | ISRE reporter activity, mean (human STING R95C; Log[μM] -1): 0.7 | ISRE reporter activity, mean (human STING R95C; Log[μM] -1.3): 0.7 | ISRE reporter activity, mean (human STING V31M; Log[μM] 0.2): 31.8 | ISRE reporter activity, mean (human STING V31M; Log[μM] 0.5): 43.5 | ISRE reporter activity, mean (human STING V31M; Log[μM] 0.8): 50.7 | ISRE reporter activity, mean (human STING V31M; Log[μM] 1.1): 52.8 | ISRE reporter activity, mean (human STING V31M; Log[μM] 1.4): 50.8 | ISRE reporter activity, mean (human STING V31M; Log[μM] -0.1): 25.4 | ISRE reporter activity, mean (human STING V31M; Log[μM] -0.4): 17.4 | ISRE reporter activity, mean (human STING V31M; Log[μM] -0.7): 10.4 | ISRE reporter activity, mean (human STING V31M; Log[μM] -1): 5.7 | ISRE reporter activity, mean (human STING V31M; Log[μM] -1.3): 2.2 | STING activation in words (mSTING C95R): unable to restore the activity | ISRE reporter activity, mean (mSTING C95R; Log[μM] 0.3, Figure S1g): -9.8647 | ISRE reporter activity, mean (mSTING C95R; Log[μM] 1, Figure S1g): -24.0951 | ISRE reporter activity, mean (mSTING C95R; Log[μM] 1.7, Figure S1g): -51.7859 | ISRE reporter activity, mean (mSTING C95R; Log[μM] -0.4, Figure S1g): -3.941 | ISRE reporter activity, mean (mSTING C95R; Log[μM] -1.1, Figure S1g): -6.421 | ISRE reporter activity, mean (mSTING C95R; Log[μM] -1.8, Figure S1g): -3.26 | STING activation in words (human STING R238A; R238A): maintained full agonist activity | ISRE reporter activity, mean (human STING R238A; Log[μM] 0.267606): 22.8148 | ISRE reporter activity, mean (human STING R238A; Log[μM] 0.744728): 30.7761 | ISRE reporter activity, mean (human STING R238A; Log[μM] 1.22185): 19.5642 | ISRE reporter activity, mean (human STING R238A; Log[μM] 1.69897): 5.793 | ISRE reporter activity, mean (human STING R238A; Log[μM] -0.209515): 16.4448 | ISRE reporter activity, mean (human STING R238A; Log[μM] -0.686637): 8.4 | ISRE reporter activity, mean (human STING R238A; Log[μM] -1.16376): 4.954 | ISRE reporter activity, mean (human STING R238A; Log[μM] -4.30103): 2.802 | ISRE reporter activity, mean (human STING (WT); STING WT, Log[μM] 1.22185, Figure S1c and d): 17.6344 | ISRE reporter activity, mean (human STING (WT); STING WT, Log[μM] 1.69897, Figure S1c and d): 5.278 | ISRE reporter activity, mean (human STING (WT); WT, Log[μM] 0.3, Figure 3c): 91.1301 | ISRE reporter activity, mean (human STING (WT); WT, Log[μM] 1, Figure 3c): 89.4692 | ISRE reporter activity, mean (human STING (WT); WT, Log[μM] -0.4, Figure 3c): 17.8606 | ISRE reporter activity, mean (human STING (WT); WT, Log[μM] -1.1, Figure 3c): 10.1153 | ISRE reporter activity, mean (human STING (WT); WT, Log[μM] -1.8, Figure 3c): -0.2753 | ISRE reporter activity, mean (human STING (WT); WT, Log[μM] -2.49, Figure 3c): -1.7095 | ISRE reporter activity, mean (human STING (WT); WT, Log[μM] -3.19, Figure 3c): -1.3729 | ISRE reporter activity, mean (human STING (WT); hSTING WT, Log[μM] 0.2): 21.1 and 30.1 | ISRE reporter activity, mean (human STING (WT); hSTING WT, Log[μM] 0.5): 33.4 and 42.4 | ISRE reporter activity, mean (human STING (WT); hSTING WT, Log[μM] 0.8): 39.5 and 52.4 | ISRE reporter activity, mean (human STING (WT); hSTING WT, Log[μM] 1.1): 50.3 and 59.2 | ISRE reporter activity, mean (human STING (WT); hSTING WT, Log[μM] 1.4): 53.6 and 53.1 | ISRE reporter activity, mean (human STING (WT); hSTING WT, Log[μM] -1.3): 1.2 and 1.5 | STING activation in words (human STING (WT); human STING): specifically activated human STING | ISRE reporter activity, mean ([2]; Log[μM] 0.2): 5.4 | ISRE reporter activity, mean ([2]; Log[μM] 0.5): 12 | ISRE reporter activity, mean ([2]; Log[μM] 0.8): 17.4 | ISRE reporter activity, mean ([2]; Log[μM] 1.1): 24.2 | ISRE reporter activity, mean ([2]; Log[μM] 1.4): 26.3 | ISRE reporter activity, mean ([2]; Log[μM] -0.1): 2.6 | ISRE reporter activity, mean ([2]; Log[μM] -0.4): 1.4 | ISRE reporter activity, mean ([2]; Log[μM] -0.7): 0.8 | ISRE reporter activity, mean ([2]; Log[μM] -1): 0.7 | ISRE reporter activity, mean ([2]; Log[μM] -1.3): 0.7 | STING activation in words ([2]; hSTING TMD–mSTING LBD chimera): induced significant activation
SMILES: COc1cc(C(=O)O)ccc1NCc1ccc(C2(C(C)(C)C)OCC(C)(C)CO2)cc1 [NVS-STG2]
phosphorylation of IRF3 in words (IRF3 phosphorylation): strongly induced phosphorylation of IRF3 | induction of STING oligomerization in words [1]: alone was able to induce high-order oligomers of STING | STING activation in words (human STING R95C): lost all activity; also recorded: essentially irresponsive | IP10 (BMDM, WT mSTING): 143 pg/mL | STING activation in words (human STING R95A): various degrees of reduction; also recorded: essentially irresponsive
